Patent US11820766B2, “Monoacylglycerol lipase modulators” (Janssen Pharmaceutica NV, priority 2018, dated 2023)

What follows are compounds tested against T1, human MGL from HeLa cells (Homo sapiens, UniProt Q99685) (assay: In vitro MGL activity assay: [glycerol-1,3-3H]-oleyl glycerol cleavage by MGL from HeLa cells). Details: 300 nM [Glycerol-1,3-3H]-oleyl glycerol, one hour.
T1 construct: combining endogenously expressed MGL from HeLa cells with test compounds; endogenous in cells; host or cells: HeLa cells / cell homogenates
T1 sequence (Q99685 1-303): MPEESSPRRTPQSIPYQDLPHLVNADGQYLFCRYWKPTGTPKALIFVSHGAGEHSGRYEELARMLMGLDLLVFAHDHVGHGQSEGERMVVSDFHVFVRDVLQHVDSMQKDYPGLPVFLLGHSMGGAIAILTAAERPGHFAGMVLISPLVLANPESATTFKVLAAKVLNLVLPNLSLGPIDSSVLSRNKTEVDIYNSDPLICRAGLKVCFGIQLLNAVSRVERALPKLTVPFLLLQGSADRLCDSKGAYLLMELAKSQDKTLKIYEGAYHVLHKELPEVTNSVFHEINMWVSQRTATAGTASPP
Format: biochemical
From the text: MGL is the predominant hydrolase in HeLa cells/cell homogenates.

| IC50 [nM] | SMILES |
| --- | --- |
| 3.01 | C[C@H]1c2nn(C)c(-c3cc(F)c(F)c(F)c3)c2CCN1C(=O)c1cnn(C)c1[C@H]1CC1F (mixture of isomers) [Example 339, ((S)-2,7-Dimethyl-3-(3,4,5-trifluorophenyl)-2,4,5,7-tetrahydro-6H-pyrazolo[3,4-c]pyridin-6-yl)(cis-5-(2-fluorocyclopropyl)-1-methyl-1H-pyrazol-4-yl)methanone] |
| 32.5 | C[C@H]1c2nn(C)c(-c3cc(F)c(F)c(F)c3)c2CCN1C(=O)c1cnn(C)c1C1CC1F (mixture of isomers) [Example 340, ((S)-2,7-Dimethyl-3-(3,4,5-trifluorophenyl)-2,4,5,7-tetrahydro-6H-pyrazolo[3,4-c]pyridin-6-yl)(trans-5-(2-fluorocyclopropyl)-1-methyl-1H-pyrazol-4-yl)methanone] |
| 821 | CC1c2nn(C34CC(C3)C4)c(-c3ccccc3)c2CCN1C(=O)c1cnn(C)c1C1CC1 (racemic) [Example 615, racemic-(2-(Bicyclo[1.1.1]pentan-1-yl)-7-methyl-3-phenyl-2,4,5,7-tetrahydro-6H-pyrazolo[3,4-c]pyridin-6-yl)(5-cyclopropyl-1-methyl-1H-pyrazol-4-yl)methanone] |
| 8.07 | C[C@H]1c2nn(C)c(-c3cc(F)c(F)c(F)c3)c2CCN1C(=O)c1cnn(C)c1C1CC1(F)F (single isomer, unassigned) [Example 337, (5-((R*)-2,2-difluorocyclopropyl)-1-methyl-1H-pyrazol-4-yl)((S)-2,7-dimethyl-3-(3,4,5-trifluorophenyl)-2,4,5,7-tetrahydro-6H-pyrazolo[3,4-c]pyridin-6-yl)methanone] |
| 14.2 | C[C@H]1c2nn(C)c(-c3cc(F)c(F)c(F)c3)c2CCN1C(=O)c1cnn(C)c1C1CC1(F)F (single isomer, unassigned) [Example 338, (5-((S*)-2,2-Difluorocyclopropyl)-1-methyl-1H-pyrazol-4-yl)((S)-2,7-dimethyl-3-(3,4,5-trifluorophenyl)-2,4,5,7-tetrahydro-6H-pyrazolo[3,4-c]pyridin-6-yl)methanone] |
| 255 | CC1c2nn(C34CC(C3)C4)c(-c3ccccc3)c2CCN1C(=O)c1cnn(C)c1C1CC1 (single isomer, unassigned) [Example 342, (S*)-(2-(Bicyclo[1.1.1]pentan-1-yl)-7-methyl-3-phenyl-2,4,5,7-tetrahydro-6H-pyrazolo[3,4-c]pyridin-6-yl)(5-cyclopropyl-1-methyl-1H-pyrazol-4-yl)methanone] |

Same assay, conditions: 300 nM [Glycerol-1,3-3H]-oleyl glycerol, one hour incubation

| IC50 [nM] | SMILES |
| --- | --- |
| 19.9 | CC1c2nn(C)c(-c3ccccc3)c2CCN1C(=O)c1ccc2ncccc2c1 (racemic) [Example 110, (2,7-Dimethyl-3-phenyl-2,4,5,7-tetrahydro-6H-pyrazolo[3,4-c]pyridin-6-yl)(quinolin-6-yl)methanone] |
| 130 | CC1c2nn(C)c(-c3cccc(Cl)c3)c2CCN1C(=O)c1cnc2ccoc2c1 (racemic) [Example 126, (3-(3-Chlorophenyl)-2,7-dimethyl-2,4,5,7-tetrahydro-6H-pyrazolo[3,4-c]pyridin-6-yl)(furo[3,2-b]pyridin-6-yl)methanone] |
| 18.4 | CC1c2nn(C)c(-c3cccc(Cl)c3)c2CCN1C(=O)c1ccc2nccnc2c1 (racemic) [Example 132, (3-(3-Chlorophenyl)-2,7-dimethyl-2,4,5,7-tetrahydro-6H-pyrazolo[3,4-c]pyridin-6-yl)(quinoxalin-6-yl)methanone] |
| 8240 | C[C@@H]1c2nn(C)c(-c3ccccc3)c2CCN1C(=O)c1ccc2ncccc2c1 (single isomer, unassigned) [Example 111] |
| 6.96 | C[C@H]1c2nn(C)c(-c3ccccc3)c2CCN1C(=O)c1ccc2ncccc2c1 (single isomer, unassigned) [Example 112] |
| 44.3 | C[C@H]1c2nn(-c3ccccc3)c(-c3ccccc3)c2CCN1C(=O)c1ccc2ncccc2c1 (single isomer, unassigned) [Example 115] |
| > 10000 | C[C@@H]1c2nn(C)c(-c3cccc(Cl)c3)c2CCN1C(=O)c1cnc2ccoc2c1 (single isomer, unassigned) [Example 127] |
| 26.3 | C[C@H]1c2nn(C)c(-c3cccc(Cl)c3)c2CCN1C(=O)c1cnc2ccoc2c1 (single isomer, unassigned) [Example 128] |
| > 10000 | C[C@@H]1c2nn(C)c(-c3cccc(Cl)c3)c2CCN1C(=O)c1ccc2nccnc2c1 (single isomer, unassigned) [Example 133] |
| 4.27 | C[C@H]1c2nn(C)c(-c3cccc(Cl)c3)c2CCN1C(=O)c1ccc2nccnc2c1 (single isomer, unassigned) [Example 134] |
| 7.3 | C[C@H]1c2nn(C)c(-c3cc(F)cc(F)c3)c2CCN1C(=O)c1ccc2ncccc2c1 (single isomer, unassigned) [Example 159] |
| 7.04 | C[C@H]1c2nn(C)c(-c3cc(F)cc(F)c3)c2CCN1C(=O)c1ccc2nccnc2c1 (single isomer, unassigned) [Example 168] |
| 3740 | C[C@@H]1c2nn(C)c(-c3cc(F)cc(F)c3)c2CCN1C(=O)c1ccc2nccnc2c1 (single isomer, unassigned) [Example 169] |
| 13 | Cn1nc2c(c1-c1ccccc1)CCN(C(=O)c1cccc3ccccc13)C2 [Example 1, (2-Methyl-3-phenyl-2,4,5,7-tetrahydro-6H-pyrazolo[3,4-c]pyridin-6-yl)(naphthalen-1-yl)methanone] |
| 4600 | Cn1nc2c(c1C1CC1)CCN(C(=O)c1cccc(Cl)c1Cl)C2 [Example 2, (3-Cyclopropyl-2-methyl-2,4,5,7-tetrahydro-6H-pyrazolo[3,4-c]pyridin-6-yl)(2,3-dichlorophenyl)methanone] |
| 799 | Cn1nc2c(c1C1CC1)CCN(C(=O)c1cccc3ccccc13)C2 [Example 3, (3-Cyclopropyl-2-methyl-2,4,5,7-tetrahydro-6H-pyrazolo[3,4-c]pyridin-6-yl)(naphthalen-1-yl)methanone] |
| 433 | Cn1nc2c(c1-c1ccccc1)CCN(C(=O)c1cccc(OC(F)(F)F)c1F)C2 [Example 4, (2-Fluoro-3-(trifluoromethoxy)phenyl)(2-methyl-3-phenyl-2,4,5,7-tetrahydro-6H-pyrazolo[3,4-c]pyridin-6-yl)methanone] |
| > 10000 | COc1cccc(C(F)(F)F)c1C(=O)N1CCc2c(nn(C)c2-c2ccccc2)C1 [Example 5, (2-Methoxy-6-(trifluoromethyl)phenyl)(2-methyl-3-phenyl-2,4,5,7-tetrahydro-6H-pyrazolo[3,4-c]pyridin-6-yl)methanone] |
| 365 | COc1cc(C(=O)N2CCc3c(nn(C)c3-c3ccccc3)C2)cc(C(F)(F)F)c1 [Example 6, (3-Methoxy-5-(trifluoromethyl)phenyl)(2-methyl-3-phenyl-2,4,5,7-tetrahydro-6H-pyrazolo[3,4-c]pyridin-6-yl)methanone] |
| 113 | COc1c(C)cccc1C(=O)N1CCc2c(nn(C)c2-c2ccccc2)C1 [Example 7, (2-Methoxy-3-methylphenyl)(2-methyl-3-phenyl-2,4,5,7-tetrahydro-6H-pyrazolo[3,4-c]pyridin-6-yl)methanone] |
| 1840 | CCc1c(OC)cccc1C(=O)N1CCc2c(nn(C)c2-c2ccccc2)C1 [Example 8, (2-Ethyl-3-methoxyphenyl)(2-methyl-3-phenyl-2,4,5,7-tetrahydro-6H-pyrazolo[3,4-c]pyridin-6-yl)methanone] |
